Nine compounds from US9242940B2, “N-substituted bis(fluoroalkyl)-1,4-benzodiazepinone compounds” (BRISTOL-MYERS SQUIBB COMPANY, priority 2012, dated 2016) can be followed below.

A value given as a limit tells only on which side of the number the result lay.

The nature of this series: Metabolic Stability Half-Life Panel, human liver microsomes. The format is in vitro ADME. The settings on record: pH 7.4, human liver microsomes, 0.5 μM compound, NADPH, 45-minute time course, read-out: HLM (t1/2, min.). The source says:
Metabolic Stability Half-Life Panel
As for `NC(=O)[C@@H](CCCC(F)(F)F)[C@@H](CCC(F)(F)F)C(=O)N[C@H]1N=C(c2ccccc2)c2ccccc2N(c2ccccn2)C1=O` [Example 1, (2R,3S)-N-((3S)-2-Oxo-5-phenyl-1-(2-pyridinyl)-2,3-dihydro-1H-1,4-benzodiazepin-3-yl)-3-(4,4,4-trifluorobutyl)-2-(3,3,3-trifluoropropyl)succinamide], the half-life at 0.5 μM was no less than 1.12 h.
Regarding `NC(=O)[C@@H](CCC(F)(F)F)[C@@H](CCC(F)(F)F)C(=O)N[C@H]1N=C(c2ccccc2)c2ccccc2N(c2ccc(Cl)cn2)C1=O` [Example 2, (2R,3S)-N-((3S)-1-(5-Chloro-2-pyridinyl)-2-oxo-5-phenyl-2,3-dihydro-1H-1,4-benzodiazepin-3-yl)-2,3-bis(3,3,3-trifluoropropyl)succinamide], the half-life at 0.5 μM was no less than 1.12 h.
Regarding `NC(=O)[C@@H](CCC(F)(F)F)[C@@H](CCC(F)(F)F)C(=O)N[C@H]1N=C(c2ccccc2)c2cc3c(cc2N(c2ccccn2)C1=O)OCO3` [Example 3, (2R,3S)-N-((7S)-6-Oxo-9-phenyl-5-(2-pyridinyl)-6,7-dihydro-5H-[1,3]dioxolo[4,5-h][1,4]benzodiazepin-7-yl)-2,3-bis(3,3,3-trifluoropropyl)succinamide], the half-life at 0.5 μM was no less than 1.12 h.
For `NC(=O)[C@@H](CCCC(F)(F)F)[C@@H](CCC(F)(F)F)C(=O)N[C@H]1N=C(c2ccccc2)c2ccccc2N(c2cccnc2)C1=O` [Example 4, (2R,3S)-N-((3S)-2-Oxo-5-phenyl-1-(3-pyridinyl)-2,3-dihydro-1H-1,4-benzodiazepin-3-yl)-3-(4,4,4-trifluorobutyl)-2-(3,3,3-trifluoropropyl)succinamide] the value was no less than 1.12 h.
Then `NC(=O)[C@@H](CCC(F)(F)F)[C@@H](CCC(F)(F)F)C(=O)N[C@H]1N=C(c2ccccc2)c2ccccc2N(c2cccnc2)C1=O` [Example 5, (2R,3S)-N-((3S)-2-Oxo-5-phenyl-1-(3-pyridinyl)-2,3-dihydro-1H-1,4-benzodiazepin-3-yl)-2,3-bis(3,3,3-trifluoropropyl)succinamide], with no less than 1.12 h; and `COc1ccc(C2=N[C@H](NC(=O)[C@H](CCC(F)(F)F)[C@H](CCC(F)(F)F)C(N)=O)C(=O)N(CC3CC3)c3ccccc32)cc1` [Example 6, (2R,3S)-N-((3S)-1-(Cyclopropylmethyl)-5-(4-methoxyphenyl)-2-oxo-2,3-dihydro-1H-1,4-benzodiazepin-3-yl)-2,3-bis(3,3,3-trifluoropropyl)succinamide], with no less than 1.12 h; and `COc1ccc2c(c1)C(c1ccccc1)=N[C@H](NC(=O)[C@H](CCC(F)(F)F)[C@H](CCC(F)(F)F)C(N)=O)C(=O)N2CC(F)(F)F` [Example 7, (2R,3S)-N-((3S)-7-Methoxy-2-oxo-5-phenyl-1-(2,2,2-trifluoroethyl)-2,3-dihydro-1H-1,4-benzodiazepin-3-yl)-2,3-bis(3,3,3-trifluoropropyl)succinamide], with no less than 1.12 h.
For `CC(F)(F)C[C@H](C(N)=O)[C@@H](CCC(F)(F)F)C(=O)N[C@H]1N=C(c2ccccc2)c2ccccc2N(CC2CC2)C1=O` [Example 8, (2R,3S)-N-((3S)-1-(Cyclopropylmethyl)-2-oxo-5-phenyl-2,3-dihydro-1H-1,4-benzodiazepin-3-yl)-3-(2,2-difluoropropyl)-2-(3,3,3-trifluoropropyl)succinamide], the half-life at 0.5 μM was no less than 1.12 h.
For `CC(F)(F)C[C@@H](C(=O)N[C@H]1N=C(c2ccccc2)c2ccccc2N(CC2CC2)C1=O)[C@H](CCC(F)(F)F)C(N)=O` [Example 9, (2R,3S)-N-((3S)-1-(Cyclopropylmethyl)-2-oxo-5-phenyl-2,3-dihydro-1H-1,4-benzodiazepin-3-yl)-2-(2,2-difluoropropyl)-3-(3,3,3-trifluoropropyl)succinamide] the value was no less than 1.12 h.
